In US12534452B2, “N-(1H-imidazol-2-yl)benzamide compound and pharmaceutical composition comprising the same as active ingredient” (KAINOS MEDICINE, INC., priority 2019, dated 2026):
pIC50: −log10 of the molar value.

Molecular target: IRAK4 (Homo sapiens (Human), UniProt Q9NWZ3)
Assay: In vitro IRAK4 phosphorylation activity assay
Assay type: biochemical
Conditions: [γ-33P]-ATP, myelin basic protein substrate, 40 minutes at room temperature; categories
Protocol: In vitro IRAK4 analysis was performed using N-(1H-imidazol-2-yl)benzamide compounds according to the present invention. All compounds were prepared by dissolving in DMSO. N-(1H-imidazol-2-yl)benzamide compound according to the present invention and other elements for the reaction were added to an assay well. In the standard Kinase Profiler service the preincubation step between the N-(1H-imidazol-2-yl)benzamide compound and kinase was not performed before the reaction.
To the positive control well, all reactants except for the N-(1H-imidazol-2-yl)benzamide compound according to the present invention were added, and DMSO was added to remove the solvent effect. A known control inhibitor having the following structure was added to the blank wells to inhibit kinase activity and establish a base-line.
IRAK4 was incubated with 8 mM MOPS pH 7.0, 0.2 mM EDTA, 0.33 mg/mL myelin basic protein, 10 mM magnesium acetate and [γ-33P]-ATP (specific activity approx. 500 cpm/pmol, concentration as required). The reaction was initiated by the addition of the MgATP mix. After incubation for 40 minutes at room temperature, the reaction was stopped by the addition of 3% phosphoric acid solution. 10 μL of the reaction was then spotted onto a P30 filtermat and washed three times for 5 minutes in 75 mM phosphoric acid and once in methanol prior to drying and scintillation counting.
The results are shown in Table 26 below, where the phosphorylation activity of IC50 values for IRAK4 is shown in categories (A: <50 nM, B: 50-100 nM, C: >100 nM).

Sequence of IRAK4 (Q9NWZ3 whole entry): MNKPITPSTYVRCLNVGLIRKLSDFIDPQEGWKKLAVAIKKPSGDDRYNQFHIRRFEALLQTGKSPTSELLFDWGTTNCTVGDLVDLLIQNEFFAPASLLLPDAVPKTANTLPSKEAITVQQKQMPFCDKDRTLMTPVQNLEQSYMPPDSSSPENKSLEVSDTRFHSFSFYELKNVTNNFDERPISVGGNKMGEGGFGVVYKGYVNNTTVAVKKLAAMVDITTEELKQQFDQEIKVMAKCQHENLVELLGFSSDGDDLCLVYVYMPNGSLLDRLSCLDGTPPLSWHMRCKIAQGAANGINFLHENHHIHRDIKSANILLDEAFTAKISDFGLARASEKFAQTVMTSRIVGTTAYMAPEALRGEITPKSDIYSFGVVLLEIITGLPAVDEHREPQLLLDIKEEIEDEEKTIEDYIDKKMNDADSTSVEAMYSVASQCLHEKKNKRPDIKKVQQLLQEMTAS

`CCN1CCN(C(=O)CCCc2cn(-c3ccccc3)c(NC(=O)c3cccc(-c4cnn(C)c4)c3)n2)CC1` [Example 144, N-(4-(4-(4-ethylpiperazin-1-yl)-4-oxobutyl)-1-phenyl-1H-imidazol-2-yl)-3-(1-methyl-1H-pyrazol-4-yl)benzamide] and `CN1CCN(C(=O)CCCc2cn(-c3ccccc3)c(NC(=O)c3cccc(-c4cnn(C)c4)c3)n2)CC1` [Example 143, 3-(1-methyl-1H-pyrazol-4-yl)-N-(4-(4-(4-methylpiperazin-1-yl)-4-oxobutyl)-1-phenyl-1H-imidazol-2-yl)benzamide] cannot be ordered by pIC50: over 7.30 for the first, over 7.30 for the second.

`Cn1cc(-c2cccc(C(=O)Nc3nc(CCCCCCN4CCCCCC4)cn3-c3ccccc3)c2)cn1` [Example 223, N-(4-(6-(azepan-1-yl)hexyl)-1-phenyl-1H-imidazol-2-yl)-3-(1-methyl-1H-pyrazol-4-yl)benzamide] and `Cn1cc(-c2cccc(C(=O)Nc3nc(CCCCCCN4CCCCC4)cn3-c3ccccc3)c2)cn1` [Example 220, 3-(1-methyl-1H-pyrazol-4-yl)-N-(1-phenyl-4-(6-(piperidin-1-yl)hexyl)-1H-imidazol-2-yl)benzamide] cannot be ordered by pIC50: over 7.30 for the first, over 7.30 for the second.

`O=C(Nc1nc(CCCCCCN2CCCCC2)cn1-c1ccccc1)c1cccc(-c2cccc3[nH]ncc23)c1` [Example 255, 3-(1H-indazol-4-yl)-N-(1-phenyl-4-(6-(piperidin-1-yl)hexyl)-1H-imidazol-2-yl)benzamide] and `O=C(Nc1nc(CCCCN2CCCCC2)cn1-c1ccccc1)c1cccc(-c2cn[nH]c2)c1` [Example 113, N-(1-phenyl-4-(4-(piperidin-1-yl)butyl)-1H-imidazol-2-yl)-3-(1H-pyrazol-4-yl)benzamide] cannot be ordered by pIC50: over 7.30 for the first, over 7.30 for the second.

`O=C(CCCCc1cn(-c2ccccc2)c(NC(=O)c2cccc(-c3cn[nH]c3)c2)n1)NC1CCCCC1` [Example 89, N-(4-(5-(cyclohexylamino)-5-oxopentyl)-1-phenyl-1H-imidazol-2-yl)-3-(1H-pyrazol-4-yl)benzamide] and `C[C@@H]1CCCCN1C(=O)CCCCCc1cn(-c2ccccc2)c(NC(=O)c2cccc(-c3cn[nH]c3)c2)n1` [Example 96, (R)—N-(4-(6-(2-methylpiperidin-1-yl)-6-oxohexyl)-1-phenyl-1H-imidazol-2-yl)-3-(1H-pyrazol-4-yl)benzamide] cannot be ordered by pIC50: over 7.30 for the first, over 7.30 for the second.

`CN1CCN(N(C)C(=O)CCCc2cn(-c3ccccc3)c(NC(=O)c3cccc(-c4cnn(C)c4)c3)n2)CC1` [Example 218, N-(4-(4-(methyl(4-methylpiperazin-1-yl)amino)-4-oxobutyl)-1-phenyl-1H-imidazol-2-yl)-3-(1-methyl-1H-pyrazol-4-yl)benzamide] and `Cn1cc(-c2cccc(C(=O)Nc3nc(CCCC(=O)N4CCC(C)(C)CC4)cn3-c3ccccc3)c2)cn1` [Example 167, N-(4-(4-(4,4-dimethylpiperidin-1-yl)-4-oxobutyl)-1-phenyl-1H-imidazol-2-yl)-3-(1-methyl-1H-pyrazol-4-yl)benzamide] cannot be ordered by pIC50: over 7.30 for the first, over 7.30 for the second.

`CNC(=O)CCCc1cn(-c2ccccc2)c(NC(=O)c2cccc(-c3cnn(C)c3)c2)n1` [Example 139, 3-(1-methyl-1H-pyrazol-4-yl)-N-(4-(4-(methylamino)-4-oxobutyl)-1-phenyl-1H-imidazol-2-yl)benzamide] and `Cn1cc(-c2cccc(C(=O)Nc3nc(CCCC(=O)NC4CC4)cn3-c3ccccc3)c2)cn1` [Example 141, N-(4-(4-(cyclopropylamino)-4-oxobutyl)-1-phenyl-1H-imidazol-2-yl)-3-(1-methyl-1H-pyrazol-4-yl)benzamide] cannot be ordered by pIC50: over 7.30 for the first, over 7.30 for the second.

`O=C(CCCc1cn(-c2ccccc2)c(NC(=O)c2cccc(-c3ccc4scnc4c3)c2)n1)NC1CC1` [Example 283, 3-(benzo[d]thiazol-5-yl)-N-(4-(4-(cyclopropylamino)-4-oxobutyl)-1-phenyl-1H-imidazol-2-yl)benzamide] and `CN1CCN(C(=O)CCCCCc2cn(-c3ccccc3)c(NC(=O)c3cccc(-c4ccc5scnc5c4)c3)n2)CC1` [Example 288, 3-(benzo[d]thiazol-5-yl)-N-(4-(6-(4-methylpiperazin-1-yl)-6-oxohexyl)-1-phenyl-1H-imidazol-2-yl)benzamide] cannot be ordered by pIC50: under 7.00 for the first, under 7.00 for the second.

First: CCOC(C)n1cc(-c2cccc(C(=O)Nc3nc(CCCCCCN4CCCCC4)cn3-c3ccccc3)c2)cn1 (stereo not shown) [Example 138, 3-(1-(1-ethoxyethyl)-1H-pyrazol-4-yl)-N-(1-phenyl-4-(6-(piperidin-1-yl)hexyl)-1H-imidazol-2-yl)benzamide]
Second: Cn1cc(-c2cccc(C(=O)Nc3nc(CCCC(=O)N4CCCCC4)cn3-c3ccccc3)c2)cn1 [Example 142, 3-(1-methyl-TH-pyrazol-4-yl)-N-(4-(4-oxo-4-(piperidin-1-yl)butyl)-1-phenyl-1H-imidazol-2-yl)benzamide]
The pIC50 of the first is lower: 7.00 to 7.30 for the first, over 7.30 for the second. The second is the more potent here.

`O=C(O)CCCc1cn(-c2ccccc2)c(NC(=O)c2cccc(-c3cn[nH]c3)c2)n1` [Example 57, 4-(2-(3-(1H-pyrazol-4-yl)benzamido)-1-phenyl-1H-imidazol-4-yl)butanoic acid] and `COC(=O)CCCCCc1cn(-c2ccccc2)c(NC(=O)c2cccc(-c3cn[nH]c3)c2)n1` [Example 91, methyl 6-(2-(3-(1H-pyrazol-4-yl)benzamido)-1-phenyl-1H-imidazol-4-yl)hexanoate] cannot be ordered by pIC50: over 7.30 for the first, over 7.30 for the second.

`O=C(CCCc1cn(-c2ccccc2)c(NC(=O)c2cccc(-c3cn[nH]c3)c2)n1)Nc1ccc(F)cc1F` [Example 66, N-(4-(4-((2,4-difluorophenyl)amino)-4-oxobutyl)-1-phenyl-1H-imidazol-2-yl)-3-(1H-pyrazol-4-yl)benzamide] and `CNC(=O)CCCc1cn(-c2ccc(F)cc2)c(NC(=O)c2cccc(-c3cn[nH]c3)c2)n1` [Example 297, N-(1-(4-fluorophenyl)-4-(4-(methylamino)-4-oxobutyl)-1H-imidazol-2-yl)-3-(1H-pyrazol-4-yl)benzamide] cannot be ordered by pIC50: over 7.30 for the first, over 7.30 for the second.

`O=C(Nc1nc(CCCCCCNC(=O)C2CC2)cn1-c1ccccc1)c1cccc(-c2ccc3[nH]ncc3c2)c1` [Example 262, N-(4-(6-(cyclopropanecarboxamido)hexyl)-1-phenyl-1H-imidazol-2-yl)-3-(1H-indazol-5-yl)benzamide] and `COC[C@@H]1CCCN1NC(=O)CCCCc1cn(-c2ccccc2)c(NC(=O)c2cccc(-c3cn[nH]c3)c2)n1` [Example 84, (S)—N-(4-(5-((2-(methoxymethyl)pyrrolidin-1-yl)amino)-5-oxopentyl)-1-phenyl-1H-imidazol-2-yl)-3-(1H-pyrazol-4-yl)benzamide] cannot be ordered by pIC50: over 7.30 for the first, over 7.30 for the second.

`Cn1cc(-c2cccc(C(=O)Nc3nc(CCCC(=O)N4CCN(C5CC5)CC4)cn3-c3ccccc3)c2)cn1` [Example 149, N-(4-(4-(4-cyclopropylpiperazin-1-yl)-4-oxobutyl)-1-phenyl-1H-imidazol-2-yl)-3-(1-methyl-1H-pyrazol-4-yl)benzamide] and `Cn1cc(-c2cccc(C(=O)Nc3nc(CCCC(=O)N4CCN(C(C)(C)C)CC4)cn3-c3ccccc3)c2)cn1` [Example 181, N-(4-(4-(4-(tert-butyl)piperazin-1-yl)-4-oxobutyl)-1-phenyl-1H-imidazol-2-yl)-3-(1-methyl-1H-pyrazol-4-yl)benzamide] cannot be ordered by pIC50: over 7.30 for the first, over 7.30 for the second.

`COC1CCN(C(=O)CCCc2cn(-c3ccccc3)c(NC(=O)c3cccc(-c4cnn(C)c4)c3)n2)CC1` [Example 177, N-(4-(4-(4-methoxypiperidin-1-yl)-4-oxobutyl)-1-phenyl-1H-imidazol-2-yl)-3-(1-methyl-1H-pyrazol-4-yl)benzamide] and `Cn1cc(-c2cccc(C(=O)Nc3nc(CCCCC(=O)N4CCC[C@H](C(=O)O)C4)cn3-c3ccccc3)c2)cn1` [Example 208, (S)-1-(5-(2-(3-(1-methyl-1H-pyrazol-4-yl)benzamido)-1-phenyl-1H-imidazol-4-yl)pentanoyl)piperidine-3-carboxylic acid] cannot be ordered by pIC50: over 7.30 for the first, over 7.30 for the second.

First: O=C(CCCc1cn(-c2ccccc2)c(NC(=O)c2cccc(-c3cn[nH]c3F)c2)n1)NC1CC1 [Example 229, N-(4-(4-(cyclopropylamino)-4-oxobutyl)-1-phenyl-1H-imidazol-2-yl)-3-(5-fluoro-1H-pyrazol-4-yl)benzamide]
Second: C[C@H]1CCCCN1C(=O)CCc1cn(-c2ccccc2)c(NC(=O)c2cccc(-c3cn[nH]c3)c2)n1 [Example 31, (S)—N-(4-(3-(2-methylpiperidin-1-yl)-3-oxopropyl)-1-phenyl-1H-imidazol-2-yl)-3-(1H-pyrazol-4-yl)benzamide]
The pIC50 of the first is higher: over 7.30 for the first, 7.00 to 7.30 for the second. The first is the more potent here.

First: O=C(CCc1cn(CC2CCCCC2)c(NC(=O)c2cccc(-c3cn[nH]c3)c2)n1)Nc1ccccc1 [Example 295, N-(1-(cyclohexylmethyl)-4-(3-oxo-3-(phenylamino)propyl)-1H-imidazol-2-yl)-3-(1H-pyrazol-4-yl)benzamide]
Second: COC[C@@H]1CCCN1C(=O)CCc1cn(-c2ccccc2)c(NC(=O)c2cccc(-c3cn[nH]c3)c2)n1 [Example 19, (S)—N-(4-(3-(2-(methoxymethyl)pyrrolidin-1-yl)-3-oxopropyl)-1-phenyl-1H-imidazol-2-yl)-3-(1H-pyrazol-4-yl)benzamide]
The pIC50 of the first is lower: under 7.00 for the first, 7.00 to 7.30 for the second.

`O=C(CCc1cn(-c2ccccc2)c(NC(=O)c2cccc(-c3cnoc3)c2)n1)Nc1ccccc1` [Example 5, 3-(isoxazol-4-yl)-N-(4-(3-oxo-3-(phenylamino)propyl)-1-phenyl-1H-imidazol-2-yl)benzamide] was tested, and the pIC50 was under 7.00.
